# According to US20150011559A1, “ANTIMICROBIAL AGENTS” (RUTGERS, THE STATE UNIVERSITY OF NEW JERSEY, priority 2012, published 2015):
# Tests used:
# [1] = test system: methicillin-resistant Staphylococcus aureus (MRSA); assay: Antibacterial assay (Test C), broth microdilution MIC against MRSA; type: cell-based; details: minimal inhibitory concentration, broth microdilution, growth completely inhibited; for MIC: Staphylococcus aureus, MRSA, read-out: MRSA MIC data
# Protocol: (§1) Test C. Antibacterial Assay.
# (§2) Antibacterial activity can be determined as per Clinical and Laboratory Standards Institute (CLSI) guidelines using a broth microdilution assay in which log-phase bacteria are grown at 37° C. in appropriate medium containing two-fold serial dilutions of a compound to yield final concentrations ranging from 256 to 0.06 μg/mL. For determination of minimal inhibitory concentration (MIC) values, bacterial growth is monitored after 24 to 48 hours by measuring optical density at 600 nm.
# (§3) Using a procedure similar to Test C, representative compounds of the invention were tested against methicillin-susceptible Staphylococcus aureus (MSSA) and methicillin-resistant Staphylococcus aureus (MRSA).
# [2] = test system: methicillin-susceptible Staphylococcus aureus (MSSA); assay: Antibacterial assay (Test C), broth microdilution MIC against MSSA; type: cell-based; details: minimal inhibitory concentration, broth microdilution, growth completely inhibited; for MIC: Staphylococcus aureus, MSSA, read-out: MSSA MIC data
# Protocol: as §1, §2, §3
SMILES,MIC [1] [µg/mL],MIC [2] [µg/mL],further results
NC(N)=NCc1cccc(-c2ccc(-c3cscn3)cc2)c1 [Code 65],32,–,MSSA MIC data [2]: 8.0 µg/mL; MSSA MIC data ([2]; listed as 55): 32 µg/mL
O=C(Nc1nccs1)c1ccc(-c2cccc(Cn3ccnc3)c2)cc1 [Code 62],32,4,–
CC(C)(C)c1ccc(-c2cc(CNC(=N)N)cc(CNC(=N)N)c2)cc1 [Code 59],16,16,–
CC(C)(C)c1ccc(-c2ccc(CCN)cc2)cc1 [Code 21],–,–,MRSA MIC data ([1]; listed as 19): 16 µg/mL; MSSA MIC data ([2]; listed as 19): 8.0 µg/mL
CCC(C)NCc1cccc(-c2ccc(C(C)(C)C)cc2)c1 (stereo not shown) [Code 54],–,–,MRSA MIC data ([1]; listed as 46): 32 µg/mL; MSSA MIC data ([2]; listed as 46): 16 µg/mL
COc1cc(OC(F)(F)F)ccc1-c1cc(CN=C(N)N)cc(-c2ccc(C(C)(C)C)cc2)c1 [Code 53],2,1,–
CC(C)(C)c1ccc(-c2ccc(CO)c(Cn3ccnc3)c2)cc1 [Code 56],8,2,–
CC(C)(C)c1ccc(-c2cc(Cn3ccnc3)cc([N+](=O)[O-])c2)cc1 [Code 58],8,8,–
CC(C)(C)c1ccc(-c2cc(Cn3ccnc3)cc(NS(C)(=O)=O)c2)cc1 [Code 51],–,–,MRSA MIC data ([1]; listed as 43): 2.0 µg/mL; MSSA MIC data ([2]; listed as 43): 1.0 µg/mL
CC(C)(C)c1ccc(-c2ccc(CCN)cc2)cc1 [Code 19],–,4,MRSA MIC data ([1]; listed as 17): 4.0 µg/mL
CCC(C)NCc1cccc(-c2ccc(C(C)(C)C)cc2)c1 (stereo not shown) [Code 46],16,–,MSSA MIC data ([2]; listed as 40): 4.0 µg/mL
CC(C)(C)c1ccc(-c2ccc(-c3cccc(CNC(=N)N)c3)cc2)cc1 [Code 43],2,1,–
CC(C)(C)c1csc(-c2cccc(CN=C(N)N)c2)n1 [Code 26],16,4,–
CC(C)(C)c1ccc(-c2ccc(CNC(=N)N)cc2)cc1 [Code 18],–,4,MRSA MIC data ([1]; listed as 16): 16 µg/mL
COc1cc(-c2ccc(C(C)(C)C)cc2)cc(Cn2ccnc2)c1OC [Code 16],2,2,–
CC(C)(C)c1ccc(-c2cccc(Cn3cncn3)c2)cc1 [Code 66],16,16,MRSA MIC data [1]: 32 µg/mL
CC(C)(C)c1ccc(-c2cc(Cn3ccnc3)cc(Cn3ccnc3)c2)cc1 [Code 60],8,4,–
CC(C)(C)c1cccc(-c2ccccc2CCN)c1 [Code 38],–,32,–
CCC(C)N(Cc1cccc(-c2ccc(C(C)(C)C)cc2)c1)C(=N)N (stereo not shown) [Code 57],–,> 64,–
COc1cc(-c2ccc(C(C)(C)C)cc2)cc(CNC(=N)N)c1OC [Code 14],8,2,–

SMILES,MIC [1] [µg/mL],MIC [2] [µg/mL],further results
CC(C)(C)c1ccc(-c2cc(CNC(=N)N)cc(CC(Br)Br)c2)cc1 [Code 58],–,32,–
CC(=O)Nc1cc(Cn2ccnc2)cc(-c2ccc(C(C)(C)C)cc2)c1 [Code 63],> 64,16,–
CC(C)(C)c1ccc(-c2cccc(OCCn3ccnc3)c2)cc1 [Code 15],4,4,–
CN(C)Cc1ccc(-c2ccc(C(C)(C)C)cc2)cc1 [Code 22],32,16,–
CC(NC(=N)N)c1cccc(-c2ccc(C(C)(C)C)cc2)c1 (stereo not shown) [Code 13],2,1,–
Cc1cc(C)cc(-c2cccc(CCN)c2)c1 [Code 45],–,64,–
COc1cc(CN2CCN(C)CC2)cc(-c2ccc(C(C)(C)C)cc2)c1OC [Code 42],4,2,–
CC(C)(C)c1ccc(-c2cc(CC(Br)Br)cc(Cn3ccnc3)c2)cc1 [Code 61],8,2,MSSA MIC data [2]: 4.0 µg/mL
CC(C)(C)c1ccc(-c2ncc(CNC(=N)N)s2)cc1 [Code 11],32,8,–
CN(C)Cc1ccc(-c2ccc(C(C)(C)C)cc2)cc1CN=C(N)N [Code 23],8,4,–
CC(C)(C)c1csc(-c2ccc(CN=C(N)N)cc2)n1 [Code 28],–,–,MRSA MIC data ([1]; listed as 25): 8 µg/mL
C[N+](C)(C)c1cccc(-c2cccc(-c3cccc(-c4ccccc4)c3)c2)c1 [Code 36],4,1,–
CC(C)(C)OC(=O)NC(=N)NCc1nc(-c2ccc(C(C)(C)C)cc2)cs1 [Code 9],–,8,–
CC(C)(C)c1ccc(-c2cccc(CNNC(=N)N)c2)cc1 [Code 31],4,2,–
NC(N)=NCc1cccc(-c2ccc(-c3cncs3)cc2)c1 [Code 64],32,–,MSSA MIC data [2]: 4.0 µg/mL; MSSA MIC data ([2]; listed as 54): 16 µg/mL
N=C(N)N/N=C/c1cccc(-c2ccc(Br)cc2)c1 [Code 35],4,–,MSSA MIC data ([2]; listed as 30): 4.0 µg/mL
CC(C)(C)c1ccc(-c2cccc(CNC(=N)N)c2)cc1 [Code 3],–,–,MSSA MIC data ([2]; listed as 2): >64.0 µg/mL
COCCOCCOCCOCCOc1cc(CNC(=N)N)cc(-c2ccc(C(C)(C)C)cc2)c1 [Code 17],4,2,–
CC(C)(C)c1ccc(-c2cccc(CNC(=N)N)c2)cc1 [Code 4],1,–,MSSA MIC data ([2]; listed as 3): 1.0 µg/mL
CC(C)(C)c1ccc(-c2ccc(CNC(=N)N)cc2)cc1 [Code 20],–,–,MRSA MIC data ([1]; listed as 18): 4.0 µg/mL; MSSA MIC data ([2]; listed as 18): 2.0 µg/mL

SMILES,MIC [1] [µg/mL],MIC [2] [µg/mL],further results
CC(C)(C)c1ccc(-c2ccnc(CN=C(N)N)c2)cc1 [Code 5],16,8,–
CC(C)(C)c1ccc(-c2cccc(Cn3ccnc3)c2)cc1 [Code 47],16,8,–
CC(C)(C)c1ccc(-c2cccc(/C=N/NC(=N)N)c2)cc1 [Code 12],8,2,–
C[N+](C)(C)c1ccc(-c2ccc(-c3ccccc3)cc2)cc1.[I-] [Code 1],64,8,–
CC(C)(C)c1ccc(-c2ccccc2CCN)cc1 [Code 37],–,32,–
CC(C)(C)c1ccc(-c2cc(Cn3ccnc3)cc(NS(C)(=O)=O)c2)cc1 [Code 60],–,–,MRSA MIC data ([1]; listed as 51): >64 µg/mL; MSSA MIC data ([2]; listed as 51): 16.0 µg/mL
CC(C)(C)c1ccc(-c2csc(CNC(=N)N)n2)cc1 [Code 10],32,4,–
CC(C)(C)c1cccc(-c2cccc(CNC(=N)N)c2)c1 [Code 24],8,2,–
"COC(=O)c1ccc(-c2ccc(C(C)(C)C)cc2)cc1Cn1ccnc1 [Code 52, methyl 3-((1H-imidazol-1-yl)methyl)-4′-(tert-butyl)-[1,1′-biphenyl]-4-carboxylate]",2,1,–
CC(C)(C)c1ccc(-c2cccc(C(=O)NC(=N)N)c2)cc1 [Code 29],8,4,–
CC(C)(C)c1ccc(-c2ccc(C(=O)Nc3nccs3)c(Cn3ccnc3)c2)cc1 [Code 67],–,32,–
CC(C)(C)c1ccc(-c2ccc3sc(CNC(=N)N)nc3c2)cc1 [Code 6],8,4,–
CC(C)(C)c1csc(-c2ccc(CN=C(N)N)cc2)n1 [Code 25],8,4,–
CC(C)(C)c1ccc(-c2cccc(CN)c2)cc1 [Code 57],16,16,–
N=C(N)N/N=C/c1cccc(-c2ccc(Br)cc2)c1 [Code 30],–,–,MSSA MIC data ([2]; listed as 27): 32 µg/mL
CC(C)(C)c1ccc(-c2cc(N)cc(Cn3ccnc3)c2)cc1 [Code 59],–,> 64,–
CC(C)(C)c1ccc(-c2cc(CNC(=N)N)cc(-c3cscn3)c2)cc1 [Code 63],8,2,–
CC(C)(C)c1ccc(-c2cccc(CCN)c2)cc1 [Code 40],8,16,–
